The results in this text go back to article PMC7108740, “Exploring the molecular structures that confer ligand selectivity for galanin type II and III receptors” (PLoS ONE, 2020).

Assay [1] addresses T1, GALR3 single mutant V^186I (Homo sapiens, UniProt O60755, V186I).
T1 construct: expressed in transfected cells; host or cells: HEK293 cells stably expressing Gqi
Description: SRE-luc luciferase assay, GALR3 V186I. Type of assay: cell-based. Conditions: GALR3 V^186I; SRE-luc in HEK293 Gqi cells, ligand 6 h; mean ± S.E.; SEM. From the text:
(§1) For domain swapping between GALR2 and GALR3, individual cDNA fragments of interest were amplified by polymerase chain reaction (PCR) with Pfu polymerase (ELPIS Biotech, Daejeon, Korea) and two specific primers, one corresponding to the 5' or 3' end of the GALR2 or GALR3 cDNA and the other to the region of overlap between the two receptors. The two resulting fragments, one from GALR2 and the other from GALR3, were subjected to a second round of PCR to generate the chimeric cDNAs. To construct single, double-, triple-, pentuple-, hextuple-, and septuple-mutant receptors, amino acids of GALR3 were substituted for the amino acids at the corresponding positions in GALR2 using PCR-based site-directed mutagenesis. All of the chimeric constructs were cloned into the pcDNA3 expression vector at HindⅢ and XbaⅠ sites. The DNA sequences of the chimeras were verified by automatic sequencing. […] The luciferase activity in 50 μl cell extract was determined using a luciferase assay system according to the standard protocol for the Synergy 2 Multi-Mode Microplate Reader (BioTek, Winooski, VT, USA). […] The concentrations of agonists that induced half-maximal stimulation (EC50) were calculated using the GraphPad PRISM5 software (GraphPad software, Inc., San Diego, CA). […]

For assay [2], the target named is T2, GALR3 single mutant G^192S (Homo sapiens, UniProt O60755, G192S).
T2 construct: expressed in transfected cells; host or cells: HEK293 cells stably expressing Gqi
Briefly: SRE-luc luciferase assay, GALR3 G192S. It counts as cell-based. As to conditions: GALR3 G^192S; SRE-luc in HEK293 Gqi cells, ligand 6 h; mean ± S.E.; SEM.
Excerpt: as §1

One may read the EC50 as the concentration needed to bring the measured effect to its halfway point.

Ends that are not written are not given here.

T2 sequence (O60755 whole entry G192S): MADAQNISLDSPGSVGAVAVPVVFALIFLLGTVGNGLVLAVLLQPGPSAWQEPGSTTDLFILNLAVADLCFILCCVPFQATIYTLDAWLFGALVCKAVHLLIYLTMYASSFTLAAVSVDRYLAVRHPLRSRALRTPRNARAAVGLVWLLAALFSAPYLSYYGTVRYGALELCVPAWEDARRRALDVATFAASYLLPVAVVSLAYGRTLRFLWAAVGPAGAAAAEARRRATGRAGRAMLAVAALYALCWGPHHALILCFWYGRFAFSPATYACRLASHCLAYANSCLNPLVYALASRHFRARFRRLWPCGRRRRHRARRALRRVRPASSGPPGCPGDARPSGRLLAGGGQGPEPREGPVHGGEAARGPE
T1 sequence (O60755 whole entry V186I): as the sequence (O60755 whole entry G192S) above, with V186I, S192G counted along it

For the compound `CSCC[C@H](NC(=O)[C@H](C)NC(=O)[C@H](CCC(N)=O)NC(=O)[C@@H]1CCCN1C(=O)[C@@H](NC(=O)[C@H](Cc1c[nH]c2ccccc12)NC(=O)[C@@H](N)CC(N)=O)[C@@H](C)O)C(=O)N[C@@H](CC(C)C)C(=O)N[C@@H](Cc1ccc(O)cc1)C(=O)N[C@@H](CC(C)C)C(=O)N[C@@H](CCCCN)C(=O)NCC(=O)N[C@@H](C)C(=O)N[C@@H](CCC(N)=O)C(N)=O` [SPX, reference compound], the EC50 is 141 ± 45.8 nM in assay [1] and 35.5 ± 12.6 nM in assay [2].

For NWTPQAMLYLKGPQ-NH2 [P^13-SPX], the values for the EC50 in assay [1] and in assay [2] were 513 ± 158 nM and 355 ± 109 nM, respectively.
